Reference: patent US20230094922A1, “METHODS OF THERAPEUTIC PROGNOSTICATION” (GENETIKAPLUS LTD., priority 2020, published 2023)

System: iPSC-derived cortical neurons
Experiment: RNA sequencing, differential gene expression: Bupropion-treated vs vehicle-only induced neurons (Tables 5, 6)
Assay type: cell-based, human
Procedure: iPSC differentiation into neurons-iPSCs were seeded at a density of 3×10^6 cells/well on a hESC-qualified Matrigel pre-coated 6-well plate and incubated at 37° C., 5% CO2 overnight. Differentiation was initiated the following day (day 0) after verifying that 100% confluency was reached. Differentiation media was added daily according to the following order: […]7 (day 15 onward) similar to a previously published protocol developed by for rapid differentiation to cortical neurons. The components of the described media, Q1-7, are provided in Appendix 1. Cells were assessed for differentiation efficiency and cell death on a daily basis. On day 9, differentiated neurons were re-plated on either 96-well plates (destined for staining) or 12-well plates (destined for RNA extraction) that were coated with 15 μg/mL Poly-ornithine diluted in PBS (overnight incubation at 37° C.), followed by 1 μg/mL Laminin and 2 μg/mL Fibronectin diluted in PBS (overnight incubation at 37° C.): Neurons were first rinsed with pre-warmed PBS and 1 ml/well of Accutase was added for 35 minutes at 37° C., 5% CO2. DNAse1 (0.5 mg/mL) was then added for 10 additional minutes. 3 ml of pre-warmed Neurobasal media was added to each well and neurons were gently collected using a 5 ml […]. Wells were then verified for the presence of any remaining neurons. Neurons were spun down and resuspended in Q6 media. Neurons were seeded at a density of 150,000 cells/cm^2 placed back at 37° C. Following four hours of incubation, media was changed to Q6 media (150 μl per 96-well and 1 ml per 12-well). […] RNA-sequencing samples were aligned to the GRCh38 reference genome using STAR aligner. TMM normalization of RNA read counts and differential gene expression analysis were carried out using edgeR. […] Cells were reprogrammed into iPSCs, following which iPSCs were differentiated into frontal cortical neuronal cells (see Materials and Methods). […] Another dose of drug or control was also administered at day 32. At day 35 neurons were either fixed for histological examination or isolated for RNA extraction.

[1] = 10 μM Bupropion vs vehicle, responder-derived neurons, day 35, PValue NS (not significant)
[2] = Bupropion vs vehicle only, p<0.05, over 60,000 genes probed

## CC(NC(C)(C)C)C(=O)c1cccc(Cl)c1 (stereo not drawn) [Bupropion, 3-Chloro-N-tert-butyl-β-keto-α-methylphenethylamin]
10 μM Bupropion vs vehicle, responder-derived neurons, day 35, PValue 0.003685448
  logFC NFKBID expression: −0.6042
10 μM Bupropion vs vehicle, responder-derived neurons, day 35, PValue 0.005666754
  logFC TCF7 expression: −0.3904
10 μM Bupropion vs vehicle, responder-derived neurons, day 35, PValue 0.006214757
  logFC DUSP23 expression: −0.4927
10 μM Bupropion vs vehicle, responder-derived neurons, day 35, PValue 0.008132328
  logFC TENT5B expression: −0.8021
10 μM Bupropion vs vehicle, responder-derived neurons, day 35, PValue 0.009321582
  logFC UGT3A2 expression: −0.4889
10 μM Bupropion vs vehicle, responder-derived neurons, day 35, PValue 0.012079592
  logFC CCDC51 expression: −0.2443
10 μM Bupropion vs vehicle, responder-derived neurons, day 35, PValue 0.013463621
  logFC CTNS expression: −0.2404
10 μM Bupropion vs vehicle, responder-derived neurons, day 35, PValue 0.013981248
  logFC PYCARD expression: −1.05
10 μM Bupropion vs vehicle, responder-derived neurons, day 35, PValue 0.014582448
  logFC ABHD4 expression: −0.3111
10 μM Bupropion vs vehicle, responder-derived neurons, day 35, PValue 0.018081564
  logFC PTPRQ expression: 0.89
10 μM Bupropion vs vehicle, responder-derived neurons, day 35, PValue 0.022812161
  logFC SMPDL3B expression: −0.7488
10 μM Bupropion vs vehicle, responder-derived neurons, day 35, PValue 0.023692875
  logFC KLC3 expression: −0.8533
10 μM Bupropion vs vehicle, responder-derived neurons, day 35, PValue 0.024437941
  logFC PNKP expression: −0.2172
10 μM Bupropion vs vehicle, responder-derived neurons, day 35, PValue 0.024838304
  logFC SPNS1 expression: −0.7022
10 μM Bupropion vs vehicle, responder-derived neurons, day 35, PValue 0.025868873
  logFC FAM117A expression: −0.2485
10 μM Bupropion vs vehicle, responder-derived neurons, day 35, PValue 0.026069274
  logFC PPL expression: −0.3932
10 μM Bupropion vs vehicle, responder-derived neurons, day 35, PValue 0.026180649
  logFC ZNF425 expression: −0.2317
10 μM Bupropion vs vehicle, responder-derived neurons, day 35, PValue 0.02632325
  logFC MT2A expression (Table 6, downregulated): −0.7705
10 μM Bupropion vs vehicle, responder-derived neurons, day 35, PValue 0.026606667
  logFC COX16 expression: 0.3985
10 μM Bupropion vs vehicle, responder-derived neurons, day 35, PValue 0.026606947
  logFC RSAD2 expression: 0.9753
10 μM Bupropion vs vehicle, responder-derived neurons, day 35, PValue 0.026677416
  logFC PPP1R1B expression: −0.677
10 μM Bupropion vs vehicle, responder-derived neurons, day 35, PValue 0.026874183
  logFC LLPH expression: 0.1758
10 μM Bupropion vs vehicle, responder-derived neurons, day 35, PValue 0.02807621
  logFC CKS1B expression: −0.3153
10 μM Bupropion vs vehicle, responder-derived neurons, day 35, PValue 0.028853165
  logFC LGR6 expression: −0.6091
10 μM Bupropion vs vehicle, responder-derived neurons, day 35, PValue 0.028984217
  logFC TSTD2 expression: 0.1932
10 μM Bupropion vs vehicle, responder-derived neurons, day 35, PValue 0.028999172
  logFC HS3ST5 expression: 0.5251
10 μM Bupropion vs vehicle, responder-derived neurons, day 35, PValue 0.030155652
  logFC ART5 expression: −0.5082
10 μM Bupropion vs vehicle, responder-derived neurons, day 35, PValue 0.031233579
  logFC ADRA2B expression: −0.7451
10 μM Bupropion vs vehicle, responder-derived neurons, day 35, PValue 0.031885505
  logFC ZNF394 expression: −0.1977
10 μM Bupropion vs vehicle, responder-derived neurons, day 35, PValue 0.031923817
  logFC CHMP4A expression: 0.3939
10 μM Bupropion vs vehicle, responder-derived neurons, day 35, PValue 0.031953602
  logFC ETV5 expression: −0.2432
10 μM Bupropion vs vehicle, responder-derived neurons, day 35, PValue 0.033110679
  logFC VWA2 expression: −0.8249
10 μM Bupropion vs vehicle, responder-derived neurons, day 35, PValue 0.034205433
  logFC CDC42BPG expression: −0.6386
10 μM Bupropion vs vehicle, responder-derived neurons, day 35, PValue 0.034363174
  logFC PSD3 expression: 0.2947
10 μM Bupropion vs vehicle, responder-derived neurons, day 35, PValue 0.035638975
  logFC TRAF3IP2 expression: −0.342
10 μM Bupropion vs vehicle, responder-derived neurons, day 35, PValue 0.036129679
  logFC TXNRD2 expression: −0.3971
10 μM Bupropion vs vehicle, responder-derived neurons, day 35, PValue 0.036339642
  logFC RAB43 expression: −0.7667
10 μM Bupropion vs vehicle, responder-derived neurons, day 35, PValue 0.036466348
  logFC APOE expression: −0.4756
10 μM Bupropion vs vehicle, responder-derived neurons, day 35, PValue 0.037441749
  logFC TYW1B expression: −0.2836
10 μM Bupropion vs vehicle, responder-derived neurons, day 35, PValue 0.037774775
  logFC ARL17B expression: 0.4487
10 μM Bupropion vs vehicle, responder-derived neurons, day 35, PValue 0.039328923
  logFC TOM1 expression: −0.2212
10 μM Bupropion vs vehicle, responder-derived neurons, day 35, PValue 0.040753088
  logFC FGF1 expression: 0.7441
10 μM Bupropion vs vehicle, responder-derived neurons, day 35, PValue 0.040776978
  logFC GPR89A expression: −0.3135
10 μM Bupropion vs vehicle, responder-derived neurons, day 35, PValue 0.040813288
  logFC HAUS8 expression: −0.3377
10 μM Bupropion vs vehicle, responder-derived neurons, day 35, PValue 0.04085042
  logFC TNNI3 expression: −0.4473
10 μM Bupropion vs vehicle, responder-derived neurons, day 35, PValue 0.04107423
  logFC INMT expression: 0.8156
10 μM Bupropion vs vehicle, responder-derived neurons, day 35, PValue 0.041076888
  logFC LHFPL3 expression: 0.8454
10 μM Bupropion vs vehicle, responder-derived neurons, day 35, PValue 0.041258334
  logFC TJP3 expression: −0.4285
10 μM Bupropion vs vehicle, responder-derived neurons, day 35, PValue 0.041364592
  logFC RNASEK expression: −0.4148
10 μM Bupropion vs vehicle, responder-derived neurons, day 35, PValue 0.041485982
  logFC MACROD1 expression: −0.4078
10 μM Bupropion vs vehicle, responder-derived neurons, day 35, PValue 0.041521555
  logFC DDX55 expression: −0.177
10 μM Bupropion vs vehicle, responder-derived neurons, day 35, PValue 0.041777603
  logFC MAP4K1 expression: −0.4541
10 μM Bupropion vs vehicle, responder-derived neurons, day 35, PValue 0.042721026
  logFC MADCAM1 expression: −0.6346
10 μM Bupropion vs vehicle, responder-derived neurons, day 35, PValue 0.042934722
  logFC NMRK2 expression: −0.915
10 μM Bupropion vs vehicle, responder-derived neurons, day 35, PValue 0.044126316
  logFC RARRES2 expression: −0.5614
10 μM Bupropion vs vehicle, responder-derived neurons, day 35, PValue 0.044432972
  logFC GABRD expression: −0.661
10 μM Bupropion vs vehicle, responder-derived neurons, day 35, PValue 0.044462789
  logFC SCN9A expression: 0.653
10 μM Bupropion vs vehicle, responder-derived neurons, day 35, PValue 0.044610728
  logFC CTSD expression: −0.3042
10 μM Bupropion vs vehicle, responder-derived neurons, day 35, PValue 0.044932218
  logFC MINDY3 expression: 0.1907
10 μM Bupropion vs vehicle, responder-derived neurons, day 35, PValue 0.044969345
  logFC FBXO2 expression: −0.5297
10 μM Bupropion vs vehicle, responder-derived neurons, day 35, PValue 0.045842417
  logFC MT1X expression: −0.6858
10 μM Bupropion vs vehicle, responder-derived neurons, day 35, PValue 0.045853063
  logFC LRRC2 expression: −0.8234
10 μM Bupropion vs vehicle, responder-derived neurons, day 35, PValue 0.046824204
  logFC ZFP69B expression: 0.2565
10 μM Bupropion vs vehicle, responder-derived neurons, day 35, PValue 0.046871029
  logFC SLC45A2 expression: −1.05
10 μM Bupropion vs vehicle, responder-derived neurons, day 35, PValue 0.047318696
  logFC KLHL21 expression: −0.2723
10 μM Bupropion vs vehicle, responder-derived neurons, day 35, PValue 0.047560251
  logFC RILPL1 expression: −0.1692
10 μM Bupropion vs vehicle, responder-derived neurons, day 35, PValue 0.048107795
  logFC PSMB10 expression: −0.5669
10 μM Bupropion vs vehicle, responder-derived neurons, day 35, PValue 0.048445403
  logFC LHPP expression: −0.2669
10 μM Bupropion vs vehicle, responder-derived neurons, day 35, PValue 0.049224822
  logFC RABEP2 expression: −0.2496
10 μM Bupropion vs vehicle, responder-derived neurons, day 35, PValue 0.049340025
  logFC LARGE2 expression: −0.566
10 μM Bupropion vs vehicle, responder-derived neurons, day 35, PValue 0.049596306
  logFC ZNF221 expression: 0.3254
10 μM Bupropion vs vehicle, responder-derived neurons, day 35, PValue 3.06E−05
  logFC LIN37 expression: −0.8411
[1]
  logFC APOL1 expression: −0.7489
  logFC ATP8B4 expression: −0.6945
  logFC CA3 expression: 0.6571
  logFC CDK6 expression: 0.2579
  logFC CORT expression: 0.6431
  logFC CXCL11 expression (Table 6, downregulated): −1.176
  logFC ESR2 expression: 0.4833
  logFC GOLGA8H expression: −0.565
  logFC GRPR expression: 0.6268
  logFC MT1E expression: 2.123
  logFC MT2A expression (Table 5, upregulated): 1.378
  logFC PITX2 expression: 0.9302
  logFC SEPTIN5 expression: 0.5877
[2]
  number of genes significantly downregulated in responders after treatment, but not in non-responders: 57 genes
  number of genes significantly upregulated in responders after treatment, but not in non-responders: 18 genes
